Measured values published in PubChem BioAssay (NCI).
Where “and” joins values, the source holds several entries; their conditions need not be identical. Identical values can stand only once.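 Compound exposure: 48 hours, 5 concentrations, 96-well plates. At the GI50, growth is halved. TGI: concentration producing complete growth inhibition.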

Experiments:
Assay in all cases: NCI tumour cell line growth inhibition, 48 h
MCF7 breast = test system: MCF7 breast
A549 NSCLC = test system: A549 NSCLC
U251 CNS = test system: U251 CNS
SW-620 colon = test system: SW-620 colon
UACC-257 melanoma = test system: UACC-257 melanoma
SK-MEL-28 melanoma = test system: SK-MEL-28 melanoma
SK-OV-3 ovarian = test system: SK-OV-3 ovarian
MDA-MB-435 = test system: MDA-MB-435
RXF 393 renal = test system: RXF 393 renal
HCC-2998 colon = test system: HCC-2998 colon

| SMILES | GI50 (MCF7 breast) | TGI (MCF7 breast) | GI50 (A549 NSCLC) | TGI (A549 NSCLC) | GI50 (U251 CNS) | TGI (U251 CNS) | GI50 (SW-620 colon) | TGI (SW-620 colon) | GI50 (UACC-257 melanoma) | TGI (UACC-257 melanoma) | GI50 (SK-MEL-28 melanoma) | TGI (SK-MEL-28 melanoma) | GI50 (SK-OV-3 ovarian) | TGI (SK-OV-3 ovarian) | GI50 (MDA-MB-435) | TGI (MDA-MB-435) | GI50 (RXF 393 renal) | TGI (RXF 393 renal) | GI50 (HCC-2998 colon) | TGI (HCC-2998 colon) |
| --- | --- | --- | --- | --- | --- | --- | --- | --- | --- | --- | --- | --- | --- | --- | --- | --- | --- | --- | --- | --- |
| N#CC(I)CS(=O)(=O)c1ccccc1 (stereo not drawn) | 16.7 µM | 39.9 µM | 22.7 µM | 47.6 µM | > 100 µM | > 100 µM | 1.78 µM | 3.49 µM | 17 µM | 31.2 µM | 16.6 µM | 30.7 µM | > 100 µM | > 100 µM | 17.6 µM | 34.5 µM | 4.1 µM | 13 µM | 17.7 µM | 31.8 µM |
| COc1cc2c3c(n(C)c(=O)c2cc1OC)-c1cc2c(cc1C3=O)OCO2 |  | > 100 µM |  | > 100 µM |  | > 100 µM |  | > 100 µM |  | > 100 µM |  | > 100 µM |  | > 100 µM |  | > 100 µM |  | > 62.4 µM |  | > 100 µM |
| COC(=O)C1=CN(CC2=CC(=O)C(C)=CC2=O)C=C(C(=O)OC)C1c1ccccc1OC | 24.4 µM | 69.8 µM | 29.3 µM | > 59.4 µM | 20 µM | 46.7 µM | 18.5 µM | > 64.9 µM | 22.3 µM | 44.3 µM | 28 µM | > 57.5 µM | > 100 µM | > 100 µM | 21.8 µM | > 53.7 µM | 16.2 µM | 32.3 µM | 15.5 µM | 28.9 µM |
| COc1ccc(CNc2c3ccccc3nc3ccccc23)cc1F | 2.11 µM | 5.4 µM | 3.55 µM | 18 µM | 3.82 µM | 15.5 µM | 2.51 µM | 10.5 µM | 3.98 µM | 16.7 µM | 3.84 µM | 13.9 µM | 3.66 µM | 16.3 µM | 2.9 µM |  | 1.8 µM | 4.82 µM | 2.07 µM | 5.27 µM |
| COc1ccc(-c2cc(=O)oc3c4c(ccc23)OCN(Cc2ccc(F)cc2)C4)cc1 | 15.7 µM | 34.5 µM | 25.6 µM | > 100 µM | 14.8 µM | 29 µM | 16.3 µM | 31.8 µM | 14.9 µM | 29.9 µM | 15.1 µM | 30.7 µM | 19.1 µM | 52.9 µM | 16.5 µM | 34.7 µM | 13 µM | 29.2 µM | 19.2 µM | 37 µM |
| NC(=S)N/N=C/c1ncccc1O | 2.55 µM | > 37.5 µM and 183 µM | 3.39 µM | > 59.4 µM and 31.3 µM | 3.35 µM | > 89.9 µM and 557 µM | 3.3 µM | > 839 µM |  | 8.97 µM and 72.7 µM | 5.86 µM | > 1000 µM | 4.76 µM | 49.1 µM and 130 µM | 1.33 µM | > 471 µM |  | 7.82 µM and 42.6 µM | 3.08 µM | > 42.3 µM and 166 µM |
| Cc1cccc(NC2=C(Cl)C(=O)c3nc(C)ccc3C2=O)c1 | 0.656 µM | 3.06 µM | 2.18 µM | 6.11 µM | 1.09 µM | 2.67 µM | 1.64 µM | 4.27 µM | 1.63 µM | 3.12 µM | 1.71 µM | 3.14 µM | 11.7 µM | 24.2 µM | 0.218 µM | 0.469 µM | 1.46 µM | 2.84 µM | 1.69 µM | 3.22 µM |
| COc1ccc(/C=C\c2cc(OC)c(OC)c(OC)c2)cc1OCC(=O)O |  | > 100 µM |  | > 100 µM |  | 39.6 µM |  | > 100 µM |  | > 100 µM |  | > 100 µM |  | 94 µM |  | 3.27 µM |  | 39.2 µM |  | > 100 µM |
| O=[N+]([O-])c1ccccc1N=Nc1c(O)[nH]c2c(Cl)cc(Cl)cc12 |  | > 100 µM |  | > 100 µM |  | 27.7 µM |  | > 100 µM |  | > 100 µM |  | > 100 µM |  | > 100 µM |  | > 100 µM |  | > 59.8 µM |  | > 100 µM |
| CO[C@@H]1CC[C@]2(C)OC[C@H](C)[C@@H]3C[C@@H](C)[C@@H](OC(C)=O)[C@@H]4[C@H]3[C@@H]2O[C@H]4C[C@@]1(C)O | > 100 µM | > 100 µM | > 100 µM | > 100 µM | > 100 µM | > 100 µM | > 100 µM | > 100 µM | > 100 µM | > 100 µM | > 100 µM | > 100 µM | > 100 µM | > 100 µM | > 100 µM | > 100 µM | > 100 µM | > 100 µM | > 100 µM | > 100 µM |
| COc1ccc2c(=O)oc3c(OC)cc(CCN(C)C)c4c(=O)oc1c2c34 |  | 12.9 µM | 21.3 µM and 8.46 µM | 37 µM and 20.2 µM |  | 27.6 µM and 19 µM | 14 µM and 5.86 µM | 28.1 µM and 17.4 µM | 19.7 µM and 3.31 µM | 38.7 µM and 10.3 µM | 4.25 µM and 1.01 µM | 15.6 µM and 2.2 µM | 19.5 µM and 8.47 µM | 33.7 µM and 15.9 µM |  | 16.1 µM | 18 µM and 7.95 µM | 35.2 µM and 16.8 µM |  | 25.2 µM |
| CN(Cc1cnc2nc(N)nc(N)c2n1)c1ccc(C(=O)N[C@@H](CCS(=O)(=O)O)C(=O)O)cc1 |  | > 100 µM |  | > 100 µM |  | > 100 µM |  | > 100 µM |  | > 100 µM |  | > 100 µM |  | > 100 µM |  | > 100 µM |  | 1.44 µM |  | > 100 µM |
| COC(=O)/C=C/c1cc(OC(C)=O)c2c(c1)C(C(=O)OC)C(c1ccc(OC(C)=O)c(OC(C)=O)c1)O2 (stereo not drawn) | 0.0353 µM | 48.6 µM | 1.35 µM | > 56.7 µM | 0.11 µM | > 50.9 µM | 0.0468 µM | > 100 µM | 13.7 µM | > 77.6 µM | 0.905 µM | 59.7 µM | 2.46 µM | > 73.9 µM | 0.0219 µM | 0.0606 µM | 0.167 µM | 55.2 µM | 0.461 µM | 48.4 µM |
| CCOC(=O)Nc1c(C)nc2ccccn12 | > 100 µM | > 100 µM | > 100 µM | > 100 µM | > 100 µM | > 100 µM | > 100 µM | > 100 µM | > 100 µM | > 100 µM | > 100 µM | > 100 µM | > 100 µM | > 100 µM | > 100 µM | > 100 µM | > 100 µM | > 100 µM | > 100 µM | > 100 µM |
| CCCCCCn1c(-c2ccc(C(=O)O/N=C(\N)c3ccc4c(c3)OCO4)cc2)nc(-c2ccccc2)c1-c1ccccc1 | 1.58 µM | 3.5 µM | 1.41 µM | 3.68 µM | 1.74 µM | 3.81 µM | 2.8 µM | 12 µM | 10.5 µM | 43.2 µM | 4.47 µM | 22.7 µM | 10.4 µM | 64.3 µM | 1.77 µM | 3.35 µM | 1.77 µM | 3.88 µM | 2.96 µM | 10.4 µM |
| Cc1nc2c(Br)cc(Br)cc2c(=O)n1-c1nnc(-c2cccc(Cl)c2Cl)c(N)n1 | 26.7 µM | > 100 µM | 25.6 µM | 85.1 µM | 21.7 µM | 72.5 µM | 33.8 µM | > 100 µM | 24.5 µM | 65.1 µM | 65.4 µM | > 100 µM | 24.9 µM | > 100 µM | 3.8 µM | 14.3 µM | 26.2 µM | > 100 µM | 17.6 µM | 41.3 µM |
| O=C(Nc1nc(-c2c[nH]c3ccccc23)cs1)c1n[nH]c(=O)c2ccccc12 | 2.01 µM | > 100 µM | 1.57 µM | 83.6 µM | 0.663 µM | 24 µM | 1.91 µM | > 100 µM | 38.4 µM | > 100 µM | 12.4 µM | 49.2 µM | 12.6 µM | > 100 µM | 3.96 µM | > 100 µM | 0.446 µM | 20.7 µM | 18.1 µM | > 100 µM |
